test: recombinant UMI read abundance after kanamycin selection (control-corrected) (log10(CPM+1)); higher = more efficient recombination; extreme values may be limits of the assay; sequences stand for … in AGTGCAGAGAAAATCGGCCAGTTTTCTCTGCCTGCAGTCCGCATGCCGTGGGACCCCTTGGGTTCTAACCTGTTGCCTAGATTTATGCAGCGGACTGCCTTTCTCCCAAAGTGATAAACCGG…AGGTTGGTTTCACT; site = the 11-nt donor
Method: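 Pooled E. coli donor-specificity screen for the IS621 bridge recombinase. Each library member carries a reprogrammed 11-nt donor and a full-length LE bridge RNA expressed in cis from the natural promoter, with a paired donor-binding loop (8-nt LDG + 4-nt RDG) and a target-binding loop fixed to T5. It is co-electroporated with a T5 target plasmid; recombinase is induced with 0.07 mM IPTG and recombinants are selected on kanamycin. UMIs are counted as CPM, averaged over two biological replicates and corrected by the unselected control. Molecule = full bridge RNA written as DNA, built from the T5 scaffold: LDG = donor specificity nt 1-8, RDG = reverse complement of nt 8-11.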
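Further: IS621 bridge recombinase in Escherichia coli cells against a fixed T5 target plasmid.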

| Sequence | recombinant UMI read abundance (log10) |
| --- | --- |
| GAAGCAGCATGGACCGGTTTTCCCGGTAATCCGTATTTGCT (site AAAGCAGCTAG) | 1.32 |
| AGATCTTCATGGACCGGTTTTCCCGGTAATCCGTATTTGCT (site CGATCATCTAG) | 0 |
| TGACATTCATGGACCGGTTTTCCCGGTAATCCGTATTTGCC (site TGACATTCTGG) | 2.22 |
| CGGGGAACATGGACCGGTTTTCCCGGTAATCCGTATTTGTT (site CGGGGAACTAA) | 2.6 |
| AGCAAGACATGGACCGGTTTTCCCGGTAATCCGTATTTGCA (site AGTAAGACTTG) | 0.542 |
| CGATCGTCATGGACCGGTTTTCCCGGTAATCCGTATTTGTT (site CGATCGGCTAA) | 0.0205 |
| TTAGCTGCATGGACCGGTTTTCCCGGTAATCCGTATTTGTG (site ATAGCTGCTCA) | 0.183 |
| GGGACGACATGGACCGGTTTTCCCGGTAATCCGTATTTGCA (site AGGAAGACTTG) | 0 |
| CTGGAAACATGGACCGGTTTTCCCGGTAATCCGTATTTGCA (site CTGGAAACTCG) | 0.843 |
| CGGCCGACATGGACCGGTTTTCCCGGTAATCCGTATTTGTA (site CGGCCGACTTA) | 1.2 |
| TCCAATTCATGGACCGGTTTTCCCGGTAATCCGTATTTGAC (site TCCAATTCTGG) | 0 |
| GTGGATGCATGGACCGGTTTTCCCGGTAATCCGTATTTGTG (site GTGGAGGCTCA) | 0.696 |
| GTGCCTACATGGACCGGTTTTCCCGGTAATCCGTATTTGGC (site GTGCCTACTGC) | 1.12 |
| GTTTCTGCATGGACCGGTTTTCCCGGTAATCCGTATTTGAG (site GTTTCTGCTCT) | 0.45 |
| CTCCCCACATGGACCGGTTTTCCCGGTAATCCGTATTTGAG (site CTCCCCACTCT) | 0.891 |
| CCTTAGGCATGGACCGGTTTTCCCGGTAATCCGTATTTGTT (site CCTTAGGCTAA) | 0.0132 |
| GCCGCACCATGGACCGGTTTTCCCGGTAATCCGTATTTGGA (site GCCGCACCTTC) | 0.0196 |
| CTGCTAACATGGACCGGTTTTCCCGGTAATCCGTATTTGCT (site CTGCTACCTAG) | 0 |
| TGCTAGTCATGGACCGGTTTTCCCGGTAATCCGTATTTGAC (site TGCTAGTCTGT) | 0 |

| Sequence | recombinant UMI read abundance (log10) |
| --- | --- |
| TAGTGAGCATGGACCGGTTTTCCCGGTAATCCGTATTTGGG (site TAATGAGCTCC) | 0.00708 |
| CACGGCCCATGGACCGGTTTTCCCGGTAATCCGTATTTGTT (site CACGGCCCTTA) | 0.0328 |
| GCTACTGCATGGACCGGTTTTCCCGGTAATCCGTATTTGCT (site GCTACTGCTCG) | 0.00284 |
| CAGTCCGCATGGACCGGTTTTCCCGGTAATCCGTATTTGCT (site CAGTCCGCTAG) | 2.64 |
| CATCGGACATGGACCGGTTTTCCCGGTAATCCGTATTTGAA (site CATCGGACTTT) | 1.53 |
| CACTTGGCATGGACCGGTTTTCCCGGTAATCCGTATTTGTA (site CACTTGGCTTC) | 0.00904 |
| AGCCTTGCATGGACCGGTTTTCCCGGTAATCCGTATTTGTT (site AGCCTAGCTAA) | 0.00391 |
| GGGGAACCATGGACCGGTTTTCCCGGTAATCCGTATTTGAT (site GGGGAACCTAT) | 0 |
| GGTACTGCATGGACCGGTTTTCCCGGTAATCCGTATTTGGA (site GGTACTGCTTC) | 0.135 |
| GGGGACTCATGGACCGGTTTTCCCGGTAATCCGTATTTGCA (site GGGGACTCTTG) | 1.89 |
| CGTGGAACATGGACCGGTTTTCCCGGTAATCCGTATTTGTT (site CGAGGAACTAA) | 1.63 |
| TAACGAGCATGGACCGGTTTTCCCGGTAATCCGTATTTGGG (site TAAAGAGCTCC) | 0.00891 |
| GTCAAAGCATGGACCGGTTTTCCCGGTAATCCGTATTTGGT (site GTCAAAGCTAC) | 2.11 |
| AGCTCCGCATGGACCGGTTTTCCCGGTAATCCGTATTTGGG (site AGCTCAGCTCC) | 0.00775 |
| ATTGAGACATGGACCGGTTTTCCCGGTAATCCGTATTTGGA (site ATTGAGACTGC) | 0.645 |
| TACTTGACATGGACCGGTTTTCCCGGTAATCCGTATTTGCT (site TACTTGACTAC) | 0.0348 |
| ACATTTACATGGACCGGTTTTCCCGGTAATCCGTATTTGTG (site ACATTTACTCA) | 0.706 |
| CACTTTGCATGGACCGGTTTTCCCGGTAATCCGTATTTGGA (site CACTTGGCTTC) | 0.0264 |
| CGATCAGCATGGACCGGTTTTCCCGGTAATCCGTATTTGCA (site CGATCATCTAG) | 0 |

| Sequence | recombinant UMI read abundance (log10) |
| --- | --- |
| TGACGAACATGGACCGGTTTTCCCGGTAATCCGTATTTGGT (site TGACGAACTAC) | 1.16 |
| CTGCTACCATGGACCGGTTTTCCCGGTAATCCGTATTTGGT (site CTGCTACCTAT) | 0.00703 |
| GGAGTGGCATGGACCGGTTTTCCCGGTAATCCGTATTTGCT (site GGAGTGGCTAT) | 0.809 |
| TTAGGTGCATGGACCGGTTTTCCCGGTAATCCGTATTTGTG (site TTAGATGCTCA) | 0.787 |
| GCCACGACATGGACCGGTTTTCCCGGTAATCCGTATTTGTA (site GCCACGGCTTA) | 0.423 |
| TAGCTCGCATGGACCGGTTTTCCCGGTAATCCGTATTTGAA (site TAGCTTGCTTT) | 0.0127 |
| CACGGCCCATGGACCGGTTTTCCCGGTAATCCGTATTTGTT (site CACGGGCCTAA) | 0 |
| CACGCGCCATGGACCGGTTTTCCCGGTAATCCGTATTTGTG (site CATGCGCCTCA) | 0 |
| GTGGAGGCATGGACCGGTTTTCCCGGTAATCCGTATTTGTG (site GTGGAAGCTCA) | 2.56 |
| CGTAAAGCATGGACCGGTTTTCCCGGTAATCCGTATTTGAT (site CGTAAAGCTAT) | 2.44 |
| TTCTAAACATGGACCGGTTTTCCCGGTAATCCGTATTTGCA (site TTCTAAACTTG) | 2.65 |
| ACTAGAACATGGACCGGTTTTCCCGGTAATCCGTATTTGGG (site ACTAGAACTCC) | 0.113 |
| GTGGAGGCATGGACCGGTTTTCCCGGTAATCCGTATTTGTG (site GTGTAGGCTCA) | 1.06 |
| TAGGAATCATGGACCGGTTTTCCCGGTAATCCGTATTTGCC (site TAGGAATCTGG) | 2.68 |
| CCTAATACATGGACCGGTTTTCCCGGTAATCCGTATTTGGC (site CCAAATACTGC) | 0 |
| GAGCTCACATGGACCGGTTTTCCCGGTAATCCGTATTTGAT (site GAGATCACTAT) | 0.00858 |
| GCTCGATCATGGACCGGTTTTCCCGGTAATCCGTATTTGGA (site GCTCGATCTTC) | 1.99 |
| TCTTGCCCATGGACCGGTTTTCCCGGTAATCCGTATTTGAT (site ACTTGCCCTAT) | 0.00765 |
| CTGTTACCATGGACCGGTTTTCCCGGTAATCCGTATTTGCT (site CTGCTACCTAG) | 0.146 |
